According to the supplement of paper PMC10627819:

Columns and labels:
Assay in all cases: fitness (endpoint OD595 vs no drug) (fraction); higher = more growth
S. aureus Newman = conditions: one replicate, main component drawn
Outline: (§1)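 In 384-well plates at 37 °C, cultures began at OD595 0.01 in 30 µl, with 55 µl used for S. pneumoniae. OD595 readings every 30 min for 14 h were corrected by the first reading. Fitness divides the stationary-phase transition optical density by the robust mean of no-drug control wells. The result is capped at 1.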

B. subtilis 168 = system: B. subtilis 168
Outline: as §1

S. pneumoniae D39V = system: S. pneumoniae D39V
Outline: as §1
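Further: OD595 on entry to stationary phase over no-drug wells; at most 1.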

O=C(O)[C@H]1/C(=C/CO)O[C@@H]2CC(=O)N21 [Clavulanic acid] + CCCCCCCCCC(=O)N[C@@H]1[C@H]([C@@H]([C@H](O[C@H]1OC2=C3C=C4C=C2OC5=C(C=C(C=C5)[C@H]([C@H]6C(=O)N[C@@H](C7=C(C(=CC(=C7)O)OC8[C@H]([C@H]([C@@H]([C@H](O8)CO)O)O)O)C9=C(C=CC(=C9)[C@H](C(=O)N6)NC(=O)[C@@H]4NC(=O)[C@@H]1C2=CC(=CC(=C2)OC2=C(C=CC(=C2)[C@H](C(=O)N[C@H](CC2=CC(=C(O3)C=C2)Cl)C(=O)N1)N)O)O)O)C(=O)O)O[C@H]1[C@@H]([C@H]([C@@H]([C@H](O1)CO)O)O)NC(=O)C)Cl)CO)O)O [Teicoplanin]
fitness (S. aureus Newman; first compound 0.03125 µg/mL, partner 0.1562 µg/mL): 0.992 | fitness (S. aureus Newman; first compound 0.03125 µg/mL, partner 0.3125 µg/mL): 0.924 | fitness (S. aureus Newman; first compound 0.03125 µg/mL, partner 0.625 µg/mL): ≥ 1 | fitness (S. aureus Newman; first compound 0.0625 µg/mL, partner 0.1562 µg/mL): 0.966 | fitness (S. aureus Newman; first compound 0.0625 µg/mL, partner 0.3125 µg/mL): ≥ 1 | fitness (S. aureus Newman; first compound 0.0625 µg/mL, partner 0.625 µg/mL): ≥ 1 | fitness (S. aureus Newman; first compound 0.125 µg/mL, partner 0.1562 µg/mL): 0.916 | fitness (S. aureus Newman; first compound 0.125 µg/mL, partner 0.3125 µg/mL): 0.894 | fitness (S. aureus Newman; first compound 0.125 µg/mL, partner 0.625 µg/mL): 0.967

O=C(O)[C@H]1/C(=C/CO)O[C@@H]2CC(=O)N21 [Clavulanic acid] + CCC[C@@H]1C[C@@H](C(=O)N[C@@H]([C@H]2O[C@H](SC)[C@H](O)[C@@H](O)[C@H]2O)[C@@H](C)O)N(C)C1 [Lincomycin]
fitness (B. subtilis 168; first compound 1.5 µg/mL, partner 0.1 µg/mL): 0.91 | fitness (B. subtilis 168; first compound 1.5 µg/mL, partner 0.2 µg/mL): 0.868 | fitness (B. subtilis 168; first compound 1.5 µg/mL, partner 0.4 µg/mL): 0.892 | fitness (B. subtilis 168; first compound 1.5 µg/mL, partner 0.8 µg/mL, one replicate): 0.832 | fitness (B. subtilis 168; first compound 1.5 µg/mL, partner 1.6 µg/mL, one replicate): 0.913 | fitness (B. subtilis 168; first compound 3 µg/mL, partner 0.1 µg/mL): 0.835 | fitness (B. subtilis 168; first compound 3 µg/mL, partner 0.2 µg/mL): 0.837 | fitness (B. subtilis 168; first compound 3 µg/mL, partner 0.4 µg/mL): 0.838 | fitness (B. subtilis 168; first compound 3 µg/mL, partner 0.8 µg/mL, one replicate): 0.761 | fitness (B. subtilis 168; first compound 3 µg/mL, partner 1.6 µg/mL, one replicate): 0.802 | fitness (B. subtilis 168; first compound 6 µg/mL, partner 0.1 µg/mL): 0.822 | fitness (B. subtilis 168; first compound 6 µg/mL, partner 0.2 µg/mL): 0.686 | fitness (B. subtilis 168; first compound 6 µg/mL, partner 0.4 µg/mL): 0.704 | fitness (B. subtilis 168; first compound 6 µg/mL, partner 0.8 µg/mL, one replicate): 0.729 | fitness (B. subtilis 168; first compound 6 µg/mL, partner 1.6 µg/mL, one replicate): 0.708 | fitness (S. pneumoniae D39V; first compound 0.5 µg/mL, partner 0.2 µg/mL): 0.571 | fitness (S. pneumoniae D39V; first compound 0.5 µg/mL, partner 0.215 µg/mL): 0.828 | fitness (S. pneumoniae D39V; first compound 0.5 µg/mL, partner 0.4 µg/mL): 0.326 | fitness (S. pneumoniae D39V; first compound 0.5 µg/mL, partner 0.43 µg/mL): 0.726 | fitness (S. pneumoniae D39V; first compound 0.5 µg/mL, partner 0.8 µg/mL): 0.0312 | fitness (S. pneumoniae D39V; first compound 0.5 µg/mL, partner 0.86 µg/mL): 0.39 | fitness (S. pneumoniae D39V; first compound 1 µg/mL, partner 0.2 µg/mL): 0.591 | fitness (S. pneumoniae D39V; first compound 1 µg/mL, partner 0.215 µg/mL): 0.809 | fitness (S. pneumoniae D39V; first compound 1 µg/mL, partner 0.4 µg/mL): 0.354 | fitness (S. pneumoniae D39V; first compound 1 µg/mL, partner 0.43 µg/mL): 0.687 | fitness (S. pneumoniae D39V; first compound 1 µg/mL, partner 0.8 µg/mL): 0.186 | fitness (S. pneumoniae D39V; first compound 1 µg/mL, partner 0.86 µg/mL): 0.332 | fitness (S. pneumoniae D39V; first compound 2 µg/mL, partner 0.2 µg/mL): 0.406 | fitness (S. pneumoniae D39V; first compound 2 µg/mL, partner 0.215 µg/mL): 0.726 | fitness (S. pneumoniae D39V; first compound 2 µg/mL, partner 0.4 µg/mL): 0.258 | fitness (S. pneumoniae D39V; first compound 2 µg/mL, partner 0.43 µg/mL): 0.606 | fitness (S. pneumoniae D39V; first compound 2 µg/mL, partner 0.8 µg/mL): 0.045 | fitness (S. pneumoniae D39V; first compound 2 µg/mL, partner 0.86 µg/mL): 0.21

O=C(O)[C@H]1/C(=C/CO)O[C@@H]2CC(=O)N21 [Clavulanic acid] + CC[C@H]1OC(=O)[C@H](C)[C@@H](O[C@H]2C[C@@](C)(OC)[C@@H](O)[C@H](C)O2)[C@H](C)[C@@H](O[C@@H]2O[C@H](C)C[C@H](N(C)C)[C@H]2O)[C@](C)(OC)C[C@@H](C)C(=O)[C@H](C)[C@@H](O)[C@]1(C)O [Clarithromycin]
fitness (S. pneumoniae D39V; first compound 0.5 µg/mL, partner 0.007812 µg/mL, one replicate): 0.855 | fitness (S. pneumoniae D39V; first compound 0.5 µg/mL, partner 0.01562 µg/mL, one replicate): 0.829 | fitness (S. pneumoniae D39V; first compound 0.5 µg/mL, partner 0.03125 µg/mL, one replicate): 0.597 | fitness (S. pneumoniae D39V; first compound 0.5 µg/mL, partner 0.0625 µg/mL): 0.486 | fitness (S. pneumoniae D39V; first compound 0.5 µg/mL, partner 0.07 µg/mL): 0.103 | fitness (S. pneumoniae D39V; first compound 0.5 µg/mL, partner 0.125 µg/mL): 0.232 | fitness (S. pneumoniae D39V; first compound 0.5 µg/mL, partner 0.14 µg/mL): 0.0628 | fitness (S. pneumoniae D39V; first compound 0.5 µg/mL, partner 0.25 µg/mL): 0.0756 | fitness (S. pneumoniae D39V; first compound 0.5 µg/mL, partner 0.28 µg/mL): 0.0401 | fitness (S. pneumoniae D39V; first compound 1 µg/mL, partner 0.007812 µg/mL, one replicate): 0.828 | fitness (S. pneumoniae D39V; first compound 1 µg/mL, partner 0.01562 µg/mL, one replicate): 0.792 | fitness (S. pneumoniae D39V; first compound 1 µg/mL, partner 0.03125 µg/mL, one replicate): 0.574 | fitness (S. pneumoniae D39V; first compound 1 µg/mL, partner 0.0625 µg/mL): 0.541 | fitness (S. pneumoniae D39V; first compound 1 µg/mL, partner 0.07 µg/mL): 0.088 | fitness (S. pneumoniae D39V; first compound 1 µg/mL, partner 0.125 µg/mL): 0.361 | fitness (S. pneumoniae D39V; first compound 1 µg/mL, partner 0.14 µg/mL): 0.0781 | fitness (S. pneumoniae D39V; first compound 1 µg/mL, partner 0.25 µg/mL): 0.209 | fitness (S. pneumoniae D39V; first compound 1 µg/mL, partner 0.28 µg/mL): 0.0556 | fitness (S. pneumoniae D39V; first compound 2 µg/mL, partner 0.007812 µg/mL, one replicate): 0.801 | fitness (S. pneumoniae D39V; first compound 2 µg/mL, partner 0.01562 µg/mL, one replicate): 0.769 | fitness (S. pneumoniae D39V; first compound 2 µg/mL, partner 0.03125 µg/mL, one replicate): 0.509 | fitness (S. pneumoniae D39V; first compound 2 µg/mL, partner 0.0625 µg/mL): 0.325 | fitness (S. pneumoniae D39V; first compound 2 µg/mL, partner 0.07 µg/mL): 0.0584 | fitness (S. pneumoniae D39V; first compound 2 µg/mL, partner 0.125 µg/mL): 0.191 | fitness (S. pneumoniae D39V; first compound 2 µg/mL, partner 0.14 µg/mL): 0.062 | fitness (S. pneumoniae D39V; first compound 2 µg/mL, partner 0.25 µg/mL): 0.0711 | fitness (S. pneumoniae D39V; first compound 2 µg/mL, partner 0.28 µg/mL): 0.0369

O=C(O)[C@H]1/C(=C/CO)O[C@@H]2CC(=O)N21 [Clavulanic acid] + CN(C)C(=O)C(CCN1CCC(O)(c2ccc(Cl)cc2)CC1)(c1ccccc1)c1ccccc1 [Loperamide]
fitness (B. subtilis 168; first compound 1.5 µg/mL, partner 25 µg/mL): 0.848 | fitness (B. subtilis 168; first compound 3 µg/mL, partner 25 µg/mL): 0.742 | fitness (B. subtilis 168; first compound 6 µg/mL, partner 25 µg/mL): 0.614 | fitness (S. pneumoniae D39V; first compound 0.5 µg/mL, partner 17.14 µg/mL): 0.954 | fitness (S. pneumoniae D39V; first compound 0.5 µg/mL, partner 20 µg/mL): ≥ 1 | fitness (S. pneumoniae D39V; first compound 0.5 µg/mL, partner 34.28 µg/mL): 0.931 | fitness (S. pneumoniae D39V; first compound 0.5 µg/mL, partner 40 µg/mL): ≥ 1 | fitness (S. pneumoniae D39V; first compound 0.5 µg/mL, partner 68.57 µg/mL, one replicate): 0.952 | fitness (S. pneumoniae D39V; first compound 0.5 µg/mL, partner 80 µg/mL): 0.0391 | fitness (S. pneumoniae D39V; first compound 1 µg/mL, partner 17.14 µg/mL): 0.95 | fitness (S. pneumoniae D39V; first compound 1 µg/mL, partner 20 µg/mL): ≥ 1 | fitness (S. pneumoniae D39V; first compound 1 µg/mL, partner 34.28 µg/mL): 0.913 | fitness (S. pneumoniae D39V; first compound 1 µg/mL, partner 40 µg/mL): ≥ 1 | fitness (S. pneumoniae D39V; first compound 1 µg/mL, partner 68.57 µg/mL, one replicate): 0.944 | fitness (S. pneumoniae D39V; first compound 1 µg/mL, partner 80 µg/mL): 0.185 | fitness (S. pneumoniae D39V; first compound 2 µg/mL, partner 17.14 µg/mL): 0.836 | fitness (S. pneumoniae D39V; first compound 2 µg/mL, partner 20 µg/mL): 0.89 | fitness (S. pneumoniae D39V; first compound 2 µg/mL, partner 34.28 µg/mL): 0.75 | fitness (S. pneumoniae D39V; first compound 2 µg/mL, partner 40 µg/mL): 0.926 | fitness (S. pneumoniae D39V; first compound 2 µg/mL, partner 68.57 µg/mL, one replicate): 0.849 | fitness (S. pneumoniae D39V; first compound 2 µg/mL, partner 80 µg/mL): 0.0465

O=C(O)[C@H]1/C(=C/CO)O[C@@H]2CC(=O)N21 [Clavulanic acid] + CN(C)[C@@H]1C(O)=C(C(N)=O)C(=O)[C@@]2(O)C(O)=C3C(=O)c4c(O)ccc(Cl)c4[C@@](C)(O)[C@H]3C[C@@H]12 [Chlortetracycline]
fitness (B. subtilis 168; first compound 1.5 µg/mL, partner 0.0475 µg/mL): 0.873 | fitness (B. subtilis 168; first compound 1.5 µg/mL, partner 0.095 µg/mL): 0.754 | fitness (B. subtilis 168; first compound 1.5 µg/mL, partner 0.19 µg/mL): 0.58 | fitness (B. subtilis 168; first compound 3 µg/mL, partner 0.0475 µg/mL): 0.838 | fitness (B. subtilis 168; first compound 3 µg/mL, partner 0.095 µg/mL): 0.708 | fitness (B. subtilis 168; first compound 3 µg/mL, partner 0.19 µg/mL): 0.512 | fitness (B. subtilis 168; first compound 6 µg/mL, partner 0.0475 µg/mL): 0.745 | fitness (B. subtilis 168; first compound 6 µg/mL, partner 0.095 µg/mL): 0.582 | fitness (B. subtilis 168; first compound 6 µg/mL, partner 0.19 µg/mL): 0.422 | fitness (S. pneumoniae D39V; first compound 0.5 µg/mL, partner 0.012 µg/mL): 0.906 | fitness (S. pneumoniae D39V; first compound 0.5 µg/mL, partner 0.024 µg/mL): 0.699 | fitness (S. pneumoniae D39V; first compound 0.5 µg/mL, partner 0.048 µg/mL): 0.306 | fitness (S. pneumoniae D39V; first compound 0.5 µg/mL, partner 0.375 µg/mL): 0.0436 | fitness (S. pneumoniae D39V; first compound 0.5 µg/mL, partner 0.75 µg/mL): 0.0585 | fitness (S. pneumoniae D39V; first compound 0.5 µg/mL, partner 1.5 µg/mL): 0.0458 | fitness (S. pneumoniae D39V; first compound 1 µg/mL, partner 0.012 µg/mL): 0.821 | fitness (S. pneumoniae D39V; first compound 1 µg/mL, partner 0.024 µg/mL): 0.686 | fitness (S. pneumoniae D39V; first compound 1 µg/mL, partner 0.048 µg/mL): 0.366 | fitness (S. pneumoniae D39V; first compound 1 µg/mL, partner 0.375 µg/mL): 0.0323 | fitness (S. pneumoniae D39V; first compound 1 µg/mL, partner 0.75 µg/mL): 0.0545 | fitness (S. pneumoniae D39V; first compound 1 µg/mL, partner 1.5 µg/mL): 0.0428 | fitness (S. pneumoniae D39V; first compound 2 µg/mL, partner 0.012 µg/mL): 0.618 | fitness (S. pneumoniae D39V; first compound 2 µg/mL, partner 0.024 µg/mL): 0.462 | fitness (S. pneumoniae D39V; first compound 2 µg/mL, partner 0.048 µg/mL): 0.246 | fitness (S. pneumoniae D39V; first compound 2 µg/mL, partner 0.375 µg/mL): 0.0402 | fitness (S. pneumoniae D39V; first compound 2 µg/mL, partner 0.75 µg/mL): 0.0396 | fitness (S. pneumoniae D39V; first compound 2 µg/mL, partner 1.5 µg/mL): 0.0545
